Key:
Assay type in all cases: cell-based
[1] = target: T1, EGFR WT (BaF3 WT cells) (Homo sapiens, UniProt P00533); experiment: EGFR degradation HTRF assay, BaF3 WT cells; conditions: BaF3 WT, 16h treatment; for Dmax: maximum percentage of degradation, read-out: WT Dmax (%)
T1 construct: expressed in transfected cells; host or cells: BaF3
Protocol: BaF3 WT(wild type), BaF3-LTC(L858R/T790M/C797S) and BaF3-DTC(Del19/T790M/C797S) cells are treated with compounds diluted in 0.2% DMSO cell culture medium and incubate for 16h, 37° C., 5% CO2, H1975-#36, H1975-#28, H1975-#23 and HCC827 cells are treated with compounds diluted in 0.2% DMSO cell culture medium on day 2, incubate for 16h, 37° C., 5% CO2.the final concentriation of compounds in all assay is start with 10 uM, 5-fold dilution, total 8 doses were included.
After 16h treatment, add HTRF lysis buffer to each well; seal the plate and incubate 1 hour at room temperature on a plate shaker; Once the cells are lysed, 16 μL of cell lysate are transferred to a PE 384-well HTRF detection plate; 4 μL of pre-mixed HTRF antibodies are added to each well; Cover the plate with a plate sealer, spin 1000 rpm for 1 min, Incubate overnight at room temperature; Read on BMG PheraStar with HTRF protocol (337 nm-665 nm-620 nm).
The inhibition (degradation) percentage of the compound was calculated by the following equation: Inhibition percentage of Compound=100-100×(Signal-low control)/(High control-low control), wherein signal=each test compound group
High control=Cell group with added DMSO and without compound, indicating microplate readings without EGFR degradation;
Dmax is the maximum percentage of inhibition (degradation).
The IC50 (DC50) value of a compound can be obtained by fitting the following equation
Y=Bottom+(TOP−Bottom)/(1+((IC50/X)^hillslope))
Wherein, X and Y are known values, and IC50, Hillslope, Top and Bottom are the parameters obtained by fitting with software. Y is the inhibition percentage (calculated from the equation), X is the concentration of the compound; IC50 is the concentration of the compound when the 50% inhibition is reached. The smaller the IC50 value is, the stronger the inhibitory ability of the compound is. Vice versa, the higher the IC50 value is, the weaker the inhibitory ability of the compound is; Hillslope represents the slope of the fitted curve, generally around 1*; Bottom represents the minimum value of the curve obtained by data fitting, which is generally 0%±20%; Top represents the maximum value of the curve obtained by data fitting, which is generally 100%±20%. The experimental data were fitted by calculating and analyzing with Dotmatics data analysis software.

[2] = test system: EGFR Del19/T790M/C797S (BaF3-DTC cells); experiment: EGFR degradation HTRF assay, BaF3-DTC cells; conditions: 16h treatment; for DTC Dmax (%): maximum percentage of degradation; for DC50: read-out: DTC DC50
Procedure, shortened: (§1)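 Cells treated 16 h at 37 °C, 5% CO2 in medium with 0.2% DMSO; top final concentration 10 uM, 5-fold dilution, 8 doses. Lysates read by HTRF (665/620 nm); degradation % versus DMSO high control, DC50 from four-parameter fit, Dmax as maximal degradation.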

[3] = target: T2, EGFR L858R/T790M/C797S (BaF3-LTC cells) (Homo sapiens, UniProt P00533, C797S/L858R/T790M); experiment: EGFR degradation HTRF assay, BaF3-LTC cells; conditions: BaF3-LTC, 16h treatment; for Dmax: maximum percentage of degradation, read-out: LTC Dmax (%); for DC50: read-out: LTC DC50
T2 construct: expressed in transfected cells; host or cells: BaF3
T2 sequence (P00533 25-1210 T790M/C797S/L858R): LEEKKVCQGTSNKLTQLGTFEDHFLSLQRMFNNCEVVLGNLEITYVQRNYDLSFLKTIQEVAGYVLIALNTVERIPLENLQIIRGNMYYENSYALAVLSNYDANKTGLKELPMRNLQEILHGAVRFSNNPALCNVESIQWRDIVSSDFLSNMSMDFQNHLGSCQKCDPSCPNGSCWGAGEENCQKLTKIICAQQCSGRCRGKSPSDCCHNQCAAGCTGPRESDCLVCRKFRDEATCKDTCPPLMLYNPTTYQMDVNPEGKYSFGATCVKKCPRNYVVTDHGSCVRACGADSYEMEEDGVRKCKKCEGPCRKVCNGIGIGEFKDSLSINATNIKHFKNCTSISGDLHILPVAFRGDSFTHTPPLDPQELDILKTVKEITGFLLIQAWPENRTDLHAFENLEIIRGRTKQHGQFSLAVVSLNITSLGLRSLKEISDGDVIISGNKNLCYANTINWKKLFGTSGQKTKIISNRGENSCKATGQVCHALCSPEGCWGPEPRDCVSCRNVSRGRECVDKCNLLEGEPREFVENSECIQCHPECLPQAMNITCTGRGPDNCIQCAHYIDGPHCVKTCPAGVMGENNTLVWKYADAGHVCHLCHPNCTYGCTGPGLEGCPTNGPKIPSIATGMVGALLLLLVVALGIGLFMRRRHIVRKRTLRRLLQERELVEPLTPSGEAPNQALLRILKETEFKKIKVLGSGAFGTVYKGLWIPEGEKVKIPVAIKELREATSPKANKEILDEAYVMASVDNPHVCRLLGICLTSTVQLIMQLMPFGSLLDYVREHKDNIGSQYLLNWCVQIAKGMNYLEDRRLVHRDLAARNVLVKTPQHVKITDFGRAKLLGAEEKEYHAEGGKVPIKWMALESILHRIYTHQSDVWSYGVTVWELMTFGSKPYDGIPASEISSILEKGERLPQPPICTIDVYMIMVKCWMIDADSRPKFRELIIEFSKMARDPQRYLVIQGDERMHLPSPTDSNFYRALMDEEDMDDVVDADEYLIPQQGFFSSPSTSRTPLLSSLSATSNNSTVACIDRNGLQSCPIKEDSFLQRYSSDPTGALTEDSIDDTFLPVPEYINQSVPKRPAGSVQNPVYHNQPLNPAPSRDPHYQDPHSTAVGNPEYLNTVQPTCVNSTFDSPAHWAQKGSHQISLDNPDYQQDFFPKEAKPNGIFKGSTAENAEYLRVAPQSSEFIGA
Procedure, shortened: as §1

[4] = target: T3, EGFR L858R/T790M (H1975-clone #36, homozygous) (Homo sapiens, UniProt P00533, L858R/T790M); experiment: EGFR degradation HTRF assay, H1975-clone #36 cells; conditions: H1975 #36, 16h treatment; for Dmax: NCI-H1975, maximum percentage of degradation
T3 construct: designed to specifically target WT EGFR but preserve the L858R/T790M copy; host or cells: H1975-clone #36
T3 sequence (P00533 25-1210 T790M/L858R): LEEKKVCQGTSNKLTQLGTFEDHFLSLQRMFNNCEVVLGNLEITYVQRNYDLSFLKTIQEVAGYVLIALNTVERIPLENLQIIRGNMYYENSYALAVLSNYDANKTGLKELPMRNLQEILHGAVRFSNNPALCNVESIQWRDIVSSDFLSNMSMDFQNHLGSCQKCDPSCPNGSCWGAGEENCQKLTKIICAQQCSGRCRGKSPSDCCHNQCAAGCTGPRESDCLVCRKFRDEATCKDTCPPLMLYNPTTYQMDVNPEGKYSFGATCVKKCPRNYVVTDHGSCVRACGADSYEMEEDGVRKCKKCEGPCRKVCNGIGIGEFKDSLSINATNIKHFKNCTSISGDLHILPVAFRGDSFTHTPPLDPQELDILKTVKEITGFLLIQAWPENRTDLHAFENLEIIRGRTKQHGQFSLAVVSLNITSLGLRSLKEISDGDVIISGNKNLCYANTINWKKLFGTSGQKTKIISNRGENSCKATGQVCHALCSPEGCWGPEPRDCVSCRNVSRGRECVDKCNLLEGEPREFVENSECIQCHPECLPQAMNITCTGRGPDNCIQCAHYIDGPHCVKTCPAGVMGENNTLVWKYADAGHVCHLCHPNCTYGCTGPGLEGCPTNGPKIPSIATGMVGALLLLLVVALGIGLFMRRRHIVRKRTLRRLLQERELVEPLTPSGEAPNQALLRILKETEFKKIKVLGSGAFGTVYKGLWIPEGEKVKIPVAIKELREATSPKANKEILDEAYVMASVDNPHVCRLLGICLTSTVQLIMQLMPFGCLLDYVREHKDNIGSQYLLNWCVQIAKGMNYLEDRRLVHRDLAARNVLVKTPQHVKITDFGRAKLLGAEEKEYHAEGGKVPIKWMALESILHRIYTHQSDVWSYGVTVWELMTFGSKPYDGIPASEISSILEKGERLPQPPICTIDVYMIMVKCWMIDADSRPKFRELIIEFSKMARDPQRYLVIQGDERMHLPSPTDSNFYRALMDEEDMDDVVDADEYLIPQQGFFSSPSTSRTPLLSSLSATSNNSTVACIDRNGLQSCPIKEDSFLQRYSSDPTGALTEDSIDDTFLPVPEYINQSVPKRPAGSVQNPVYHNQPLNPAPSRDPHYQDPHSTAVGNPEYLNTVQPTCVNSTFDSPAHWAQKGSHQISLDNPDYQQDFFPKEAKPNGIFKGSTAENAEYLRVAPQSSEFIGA
Procedure, shortened: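 H1975 clone #36, made homozygous for L858R/T790M EGFR by knockout of the WT allele, treated 16 h at 37 °C with compound in 0.2% DMSO medium. Eight doses from 10 uM, 5-fold dilutions. EGFR measured by HTRF in lysates. DC50 and Dmax fitted against DMSO controls.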

[5] = target: T4, EGFR (HCC827 cells) (Homo sapiens, UniProt P00533, DEL746-750); experiment: EGFR degradation HTRF assay, HCC827 cells; conditions: HCC827, 16h treatment; for Dmax: maximum percentage of degradation
T4 construct: endogenous in cells; host or cells: HCC827
T4 sequence (P00533 with tags, fused parts or gaps DEL746-750): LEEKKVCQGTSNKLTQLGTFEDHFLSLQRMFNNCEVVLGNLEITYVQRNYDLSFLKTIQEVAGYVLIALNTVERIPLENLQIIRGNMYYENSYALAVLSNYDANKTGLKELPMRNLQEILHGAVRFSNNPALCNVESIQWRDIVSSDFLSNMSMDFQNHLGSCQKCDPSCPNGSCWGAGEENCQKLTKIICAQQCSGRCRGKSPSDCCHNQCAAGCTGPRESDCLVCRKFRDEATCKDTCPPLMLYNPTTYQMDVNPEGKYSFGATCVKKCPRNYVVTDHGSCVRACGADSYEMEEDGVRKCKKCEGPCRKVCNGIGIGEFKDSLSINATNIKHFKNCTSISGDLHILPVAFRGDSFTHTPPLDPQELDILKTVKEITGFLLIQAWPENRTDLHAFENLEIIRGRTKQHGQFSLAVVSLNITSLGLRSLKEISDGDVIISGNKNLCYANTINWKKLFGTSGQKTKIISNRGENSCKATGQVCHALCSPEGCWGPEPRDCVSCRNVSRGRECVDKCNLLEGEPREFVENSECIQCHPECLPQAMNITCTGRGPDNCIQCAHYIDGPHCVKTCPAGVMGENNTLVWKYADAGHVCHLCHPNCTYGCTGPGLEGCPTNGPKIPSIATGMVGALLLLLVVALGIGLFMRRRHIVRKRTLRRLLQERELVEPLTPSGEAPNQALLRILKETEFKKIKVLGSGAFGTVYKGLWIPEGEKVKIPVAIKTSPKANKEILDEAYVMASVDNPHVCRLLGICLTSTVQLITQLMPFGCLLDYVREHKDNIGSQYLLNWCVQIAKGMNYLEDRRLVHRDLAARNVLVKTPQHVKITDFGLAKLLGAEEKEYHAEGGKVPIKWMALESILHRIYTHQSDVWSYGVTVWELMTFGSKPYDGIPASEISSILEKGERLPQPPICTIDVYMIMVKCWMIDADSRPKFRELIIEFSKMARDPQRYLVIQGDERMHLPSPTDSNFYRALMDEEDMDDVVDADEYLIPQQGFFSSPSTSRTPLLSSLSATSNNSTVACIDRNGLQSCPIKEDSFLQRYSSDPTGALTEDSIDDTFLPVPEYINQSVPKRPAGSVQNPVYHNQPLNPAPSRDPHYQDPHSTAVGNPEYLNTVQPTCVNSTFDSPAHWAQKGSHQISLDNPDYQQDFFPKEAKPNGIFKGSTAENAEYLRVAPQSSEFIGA
Procedure, shortened: as §1

T1 sequence (P00533 25-1210): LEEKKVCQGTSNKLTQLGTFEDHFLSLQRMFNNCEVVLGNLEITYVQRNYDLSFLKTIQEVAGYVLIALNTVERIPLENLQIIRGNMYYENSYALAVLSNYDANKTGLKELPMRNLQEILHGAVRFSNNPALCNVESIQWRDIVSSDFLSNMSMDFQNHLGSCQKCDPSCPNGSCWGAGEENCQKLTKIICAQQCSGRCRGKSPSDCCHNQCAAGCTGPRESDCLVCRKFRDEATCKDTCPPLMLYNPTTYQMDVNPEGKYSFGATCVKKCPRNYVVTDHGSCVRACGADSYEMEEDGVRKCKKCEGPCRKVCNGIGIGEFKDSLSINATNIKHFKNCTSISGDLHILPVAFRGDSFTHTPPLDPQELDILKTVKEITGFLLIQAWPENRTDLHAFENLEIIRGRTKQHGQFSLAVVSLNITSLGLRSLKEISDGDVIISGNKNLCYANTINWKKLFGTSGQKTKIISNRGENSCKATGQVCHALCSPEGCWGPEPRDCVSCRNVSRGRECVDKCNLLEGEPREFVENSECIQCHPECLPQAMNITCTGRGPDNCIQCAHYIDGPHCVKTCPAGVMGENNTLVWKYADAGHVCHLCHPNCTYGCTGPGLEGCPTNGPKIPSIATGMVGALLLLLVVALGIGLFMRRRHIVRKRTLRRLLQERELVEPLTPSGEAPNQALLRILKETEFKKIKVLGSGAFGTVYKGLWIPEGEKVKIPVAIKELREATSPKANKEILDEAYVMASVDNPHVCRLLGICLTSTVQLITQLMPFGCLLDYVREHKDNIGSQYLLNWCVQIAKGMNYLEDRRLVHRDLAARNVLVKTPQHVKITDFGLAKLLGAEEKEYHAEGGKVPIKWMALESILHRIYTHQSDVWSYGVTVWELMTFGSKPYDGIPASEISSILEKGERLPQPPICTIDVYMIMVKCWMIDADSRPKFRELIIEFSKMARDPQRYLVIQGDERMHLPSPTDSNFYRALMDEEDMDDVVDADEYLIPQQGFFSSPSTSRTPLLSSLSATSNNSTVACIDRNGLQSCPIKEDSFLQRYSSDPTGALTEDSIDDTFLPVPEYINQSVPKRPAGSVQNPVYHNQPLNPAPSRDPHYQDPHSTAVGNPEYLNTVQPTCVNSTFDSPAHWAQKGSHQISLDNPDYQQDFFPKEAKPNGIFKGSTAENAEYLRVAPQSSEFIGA

| DC50 [1] [nM] | Dmax [1] [%] | DC50 [2] [nM] | Dmax [3] [%] | DC50 [3] [nM] | DC50 [4] [nM] | Dmax [4] [%] | DC50 [5] [nM] | Dmax [5] [%] | Structure (SMILES) | DTC Dmax (%) [2] [%] |
| --- | --- | --- | --- | --- | --- | --- | --- | --- | --- | --- |
| > 10000 | 15.3 | 53.7 | 86.2 | 168 | 11.5 | 85 | 3.2 | 84 | COc1cc(N2CCC(N3CCN(C(=O)CCCCN4CCN(c5ccc6c(c5)C(=O)N(C5CCC(=O)NC5=O)C6=O)CC4)CC3)CC2)ccc1Nc1ncc(Cl)c(Nc2ccccc2N(C)S(C)(=O)=O)n1 (stereo not shown) [Example 128, N-(2-((5-chloro-2-((4-(4-(4-(5-(4-(2-(2,6-dioxopiperidin-3-yl)-1,3-dioxoisoindolin-5-yl)piperazin-1-yl)pentanoyl)piperazin-1-yl)piperidin-1-yl)-2-methoxyphenyl)amino)pyrimidin-4-yl)amino)phenyl)-N-methylmethanesulfonamide] | 99.67 |
| > 10000 | 35.3 | 13.5 | 82.1 | 17 | 7.24 | 95.8 | 9.06 | 89.9 | CP(C)(=O)c1c(Nc2nc(Nc3ccc(N4CCN(C5CN(CCC6CCN(c7ccc(C8CCC(=O)NC8=O)c(F)c7)CC6)C5)CC4)c(F)c3)ncc2Br)ccc2nccnc12 (stereo not shown) [Example 203, 3-(4-(4-(2-(3-(4-(4-((5-bromo-4-((5-(dimethylphosphoryl)quinoxalin-6-yl)amino)pyrimidin-2-yl)amino)-2-fluorophenyl)piperazin-1-yl)azetidin-1-yl)ethyl)piperidin-1-yl)-2-fluorophenyl)piperidine-2,6-dione] | 92.4 |
| > 10000 | 11.7 | 3.72 | 92.1 | 7.04 | 4.69 | 99.9 | 5.33 | 81 | CP(C)(=O)c1c(Nc2nc(Nc3ccc(N4CCN(C5CN(CC6CN(c7ccc8c(c7)C(=O)N(C7CCC(=O)NC7=O)C8=O)C6)C5)CC4)c(F)c3)ncc2Br)ccc2nccnc12 (stereo not shown) [Example 259, 5-(3-((3-(4-(4-((5-bromo-4-((5-(dimethylphosphoryl)quinoxalin-6-yl)amino)pyrimidin-2-yl)amino)-2-fluorophenyl)piperazin-1-yl)azetidin-1-yl)methyl)azetidin-1-yl)-2-(2,6-dioxopiperidin-3-yl)isoindoline-1,3-dione] | 95.97 |
| > 10000 | 12.1 | 21.9 | 90.9 | 35.6 | 10.5 | 75 | 5.35 | 86.2 | CCc1cc(Nc2ncc(Br)c(Nc3ccc4nccnc4c3P(C)(C)=O)n2)c(OC)cc1N1CCC(N2CCN(CC3CCN(c4ccc5c(c4)C(=O)N(C4CCC(=O)NC4=O)C5=O)CC3)CC2)CC1 (stereo not shown) [Example 272, 5-(4-((4-(1-(4-((5-bromo-4-((5-(dimethylphosphoryl)quinoxalin-6-yl)amino)pyrimidin-2-yl)amino)-2-ethyl-5-methoxyphenyl)piperidin-4-yl)piperazin-1-yl)methyl)piperidin-1-yl)-2-(2,6-dioxopiperidin-3-yl)isoindoline-1,3-dione] | 91.58 |
